Source: patent US7776847B2, “Benzisothiazoles useful for treating or preventing HCV infection” (priority 2005, dated 2010)
Read-outs that look alike come from different tables or passages of the source.

Test system: HCV replicon
Assay: HCV replicon luciferase reporter assay
Type: cell-based
Parameters: scale not given here
Conditions: Table 5
Method: The inhibitory activity of certain exemplary compounds of the invention was confirmed using an HCV replicon assay. The HCV replicon can include such features as the HCV IRES, the HCV 3′ untranslated region, selected HCV genes encoding HCV polypeptides, selectable markers, and a reporter gene such as luciferase, GFP, etc. In the assay, actively dividing replicon-comprising cells were seeded at a density of between about 5,000 and 7,500 cells/well onto 96 well plates (about 90 μl of cells per well) and incubated at 37° C. and 5% CO2 for 24 hours. Then, the test compound (in a volume of about 10 μL) was added at various concentrations to each well and the cells were incubated for an additional 24-48 hours. The cells were harvested, and HCV replication or translation was monitored via a reporter assay, e.g., a luciferase reporter assay. The media was aspirated from each cell and Bright-Glo ([…].) luciferase assay reagents were added to each well according to the manufacturer's instructions. In this assay, the amount of test compound that yielded a 50% reduction in luciferase activity (IC50) was determined.

[1] = Hepatitis C virus, read-out: IC50

Structure (SMILES)	IC50 [1]	IC50 (the head prints only IC50, b387 says Tables 5 and 6 hold Replicon reporter and Western blot results)
c1ccc(COc2cccc(CNCCCNc3nsc4ccccc34)c2)cc1 [Compound 328, N^1-(benzo[d]isothiazol-3-yl)-N^3-(3-(benzyloxy)benzyl)propane-1,3-diamine]	< 5 µM	
c1ccc(-c2ncc(CNCCCNc3nsc4ccccc34)[nH]2)cc1 [Compound 329, N^1-(benzo[d]isothiazol-3-yl)-N^3-((2-phenyl-1H-imidazol-4-yl)methyl)propane-1,3-diamine]	< 5 µM	
c1ccc(-c2[nH]c3ccccc3c2CNCCCNc2nsc3ccccc23)cc1 [Compound 330, N^1-(benzo[d]isothiazol-3-yl)-N^3-((2-phenyl-1H-indol-3-yl)methyl)propane-1,3-diamine]	< 5 µM	
COc1ccc(-c2ccc(S(=O)(=O)NCCCNc3nsc4ccccc34)cc2)cc1 [Compound 331, N-(3-(benzo[d]isothiazol-3-ylamino)propyl)-4′-methoxybiphenyl-4-sulfonamide]	< 5 µM	
COc1ccc(-c2ccc(S(=O)(=O)NCCCNc3nsc4ccccc34)cc2)cc1OC [Compound 332, N-(3-(benzo[d]isothiazol-3-ylamino)propyl)-3′,4′-dimethoxybiphenyl-4-sulfonamide]	< 5 µM	
O=S(=O)(NCCCNc1nsc2ccccc12)c1ccc(-c2ccc(OC(F)(F)F)cc2)cc1 [Compound 333, N-(3-(benzo[d]isothiazol-3-ylamino)propyl)-4′-(trifluoromethoxy)biphenyl-4-sulfonamide]	< 5 µM	
COC(=O)c1ccc(-c2ccc(S(=O)(=O)NCCCNc3nsc4ccccc34)cc2)cc1 [Compound 334, methyl 4′-(N-(3-(benzo[d]isothiazol-3-ylamino)propyl)sulfamoyl)biphenyl-4-carboxylate]	< 5 µM	
O=S(=O)(NCCCNc1nsc2ccccc12)c1ccc(-c2ccccc2C(F)(F)F)cc1 [Compound 335, N-(3-(benzo[d]isothiazol-3-ylamino)propyl)-2′-(trifluoromethyl)biphenyl-4-sulfonamide]	< 5 µM	
FC(F)(F)Oc1ccc(-c2ccc(CNCCCNc3nsc4ccccc34)cc2)cc1 [Compound 336, N^1-(benzo[d]isothiazol-3-yl)-N^3-((4′-(trifluoromethoxy)biphenyl-4-yl)methyl)propane-1,3-diamine]	< 5 µM	
c1ccc2oc(CNCCCNc3nsc4ccccc34)cc2c1 [Compound 337, N^1-(benzo[d]isothiazol-3-yl)-N^3-(benzofuran-2-ylmethyl)propane-1,3-diamine]	< 5 µM	
c1ccc2c(NCCCNCc3ccc(N4CCCC4)cc3)nsc2c1 [Compound 338, N^1-(benzo[d]isothiazol-3-yl)-N^3-(4-(pyrrolidin-1-yl)benzyl)propane-1,3-diamine]	< 5 µM	
COc1ccc(-c2ccc(CN(CCCNc3nsc4ccccc34)C(=O)CS(C)(=O)=O)cc2)cc1 [Compound 339, N-(3-(benzo[d]isothiazol-3-ylamino)propyl)-N-((4′-methoxybiphenyl-4-yl)methyl)-2-(methylsulfonyl)acetamide]	< 5 µM	
COc1ccc(-c2ccc(CN(CCCNC3=NS(=O)(=O)c4ccccc43)S(=O)(=O)c3cn(C)c(C)n3)cc2)cc1 [Compound 340, N-{3-[(1,1-dioxido-1,2-benzisothiazol-3-yl)amino]propyl}-N-[(4′-methoxybiphenyl-4-yl)methyl]-1,2-dimethyl-1H-imidazole-4-sulfonamide]	> 5 µM	
COc1cccc(CNCCCNc2nsc3ccccc23)c1 [Compound 343, N^1-(benzo[d]isothiazol-3-yl)-N^3-(3-methoxybenzyl)propane-1,3-diamine]	< 5 µM	
COc1cccc(S(=O)(=O)N(C)CCCN(C)c2nsc3ccccc23)c1 [Compound 344, N-(3-(benzo[d]isothiazol-3-yl(methyl)amino)propyl)-3-methoxy-N-methylbenzenesulfonamide]	> 5 µM	
CN(CCCN(C)S(=O)(=O)c1ccccc1C(F)(F)F)c1nsc2ccccc12 [Compound 345, N-(3-(benzo[d]isothiazol-3-yl(methyl)amino)propyl)-N-methyl-2-(trifluoromethyl)benzenesulfonamide]	> 5 µM	
O=C1CCCN1c1ccc(CNCCCNc2nsc3ccccc23)cc1 [Compound 346, 1-(4-((3-(benzo[d]isothiazol-3-ylamino)propylamino)methyl)phenyl)pyrrolidin-2-one]	> 5 µM	
COc1ccc(-c2ccc(CN(C)CCCN(C)c3nsc4ccccc34)cc2)cc1 [Compound 347, N^1-(benzo[d]isothiazol-3-yl)-N^3-((4′-methoxybiphenyl-4-yl)methyl)-N^1,N^3-dimethylpropane-1,3-diamine]	> 5 µM	
O=C(N[C@@H](C(=O)NCCNc1nsc2ccccc12)c1ccccc1)c1ccc(Cl)cc1 [Compound 348, (R)-N-(2-(2-(benzo[d]isothiazol-3-ylamino)ethylamino)-2-oxo-1-phenylethyl)-4-chlorobenzamide]	< 5 µM	
O=C(NCCNc1nsc2ccccc12)c1ccc(F)cc1F [Compound 349, N-(2-(benzo[d]isothiazol-3-ylamino)ethyl)-2,4-difluorobenzamide]	< 5 µM	

Structure (SMILES)	IC50 [1]	IC50 (the head prints only IC50, b387 says Tables 5 and 6 hold Replicon reporter and Western blot results)
O=C(NCCNc1nsc2ccccc12)c1cc(F)ccc1F [Compound 350, N-(2-(benzo[d]isothiazol-3-ylamino)ethyl)-2,5-difluorobenzamide]	< 5 µM	
O=C(NCCNc1nsc2ccccc12)c1ccccc1C(F)(F)F [Compound 351, N-(2-(benzo[d]isothiazol-3-ylamino)ethyl)-2-(trifluoromethyl)benzamide]	< 5 µM	
O=C(NCCNc1nsc2ccccc12)c1cc(F)ccc1C(F)(F)F [Compound 352, N-(2-(benzo[d]isothiazol-3-ylamino)ethyl)-5-fluoro-2-(trifluoromethyl)benzamide]	> 5 µM	
O=C(NCCNc1nsc2ccccc12)c1cc(F)cc(C(F)(F)F)c1 [Compound 353, N-(2-(benzo[d]isothiazol-3-ylamino)ethyl)-3-fluoro-5-(trifluoromethyl)benzamide]	< 5 µM	
O=C(NCCNc1nsc2ccccc12)c1ccc(C(F)(F)F)cc1F [Compound 354, N-(2-(benzo[d]isothiazol-3-ylamino)ethyl)-2-fluoro-4-(trifluoromethyl)benzamide]	< 5 µM	
O=C(NCCNc1nsc2ccccc12)c1ccc(C(F)(F)F)c(F)c1 [Compound 355, N-(2-(benzo[d]isothiazol-3-ylamino)ethyl)-3-fluoro-4-(trifluoromethyl)benzamide]	< 5 µM	
O=C(NCCNc1nsc2ccccc12)c1ccc(C(F)(F)F)cc1C(F)(F)F [Compound 356, N-(2-(benzo[d]isothiazol-3-ylamino)ethyl)-2,4-bis(trifluoromethyl)benzamide]	< 5 µM	
O=C(NCCNc1nsc2ccccc12)c1cc(C(F)(F)F)ccc1C(F)(F)F [Compound 357, N-(2-(benzo[d]isothiazol-3-ylamino)ethyl)-2,5-bis(trifluoromethyl)benzamide]	< 5 µM	
O=C(NCCNc1nsc2ccccc12)c1c(F)cccc1C(F)(F)F [Compound 358, N-(2-(benzo[d]isothiazol-3-ylamino)ethyl)-2-fluoro-6-(trifluoromethyl)benzamide]	> 5 µM	
O=C(NCCNc1nsc2ccccc12)c1ccc(F)c(F)c1 [Compound 359, N-(2-(benzo[d]isothiazol-3-ylamino)ethyl)-3,4-difluorobenzamide]		A, B
COc1ccc(-c2ccc(C(=O)NCCNc3nsc4ccccc34)cc2)cc1 [Compound 360, N-(2-(benzo[d]isothiazol-3-ylamino)ethyl)-4′-methoxybiphenyl-4-carboxamide]	< 5 µM	
COc1ccc(-c2ccc(C(=O)NCCNc3nsc4ccccc34)cc2)cc1OC [Compound 361, N-(2-(benzo[d]isothiazol-3-ylamino)ethyl)-3′,4′-dimethoxybiphenyl-4-carboxamide]	< 5 µM	
COc1ccc(Cl)cc1-c1ccc(C(=O)NCCNc2nsc3ccccc23)cc1 [Compound 362, N-(2-(benzo[d]isothiazol-3-ylamino)ethyl)-5′-chloro-2′-methoxybiphenyl-4-carboxamide]	< 5 µM	
Cc1ccc(OC(C)C)c(-c2ccc(C(=O)NCCNc3nsc4ccccc34)cc2)c1 [Compound 363, N-(2-(benzo[d]isothiazol-3-ylamino)ethyl)-2′-isopropoxy-5′-methylbiphenyl-4-carboxamide]	< 5 µM	
COc1cccc(-c2ccc(C(=O)NCCNc3nsc4ccccc34)cc2)c1OC [Compound 364, N-(2-(benzo[d]isothiazol-3-ylamino)ethyl)-2′,3′-dimethoxybiphenyl-4-carboxamide]	< 5 µM	
COc1ccc(C)cc1-c1ccc(C(=O)NCCNc2nsc3ccccc23)cc1 [Compound 365, N-(2-(benzo[d]isothiazol-3-ylamino)ethyl)-2′-methoxy-5′-methylbiphenyl-4-carboxamide]	< 5 µM	
COc1ccc(-c2ccc(C(=O)NCCNc3nsc4ccccc34)cc2)c(C)c1 [Compound 366, N-(2-(benzo[d]isothiazol-3-ylamino)ethyl)-4′-methoxy-2′-methylbiphenyl-4-carboxamide]	< 5 µM	
CCCOc1ccc(F)cc1-c1ccc(C(=O)NCCNc2nsc3ccccc23)cc1 [Compound 367, N-(2-(benzo[d]isothiazol-3-ylamino)ethyl)-5′-fluoro-2′-propoxybiphenyl-4-carboxamide]	< 5 µM	
COc1cc(F)ccc1-c1cccc(C(=O)NCCCNc2nsc3ccccc23)c1 [Compound 368, N-(3-(benzo[d]isothiazol-3-ylamino)propyl)-4′-fluoro-6′-methoxybiphenyl-3-carboxamide]	< 5 µM	
